Data from US20230066946A1, “1,5-DIPHENYLPYRAZOLYL-3-OXYALKYL ACIDS AND 1-PHENYL-5-THIENYLPYRAZOLYL-3-OXYALKYL ACIDS AND THE USE THEREOF FOR CONTROL OF UNWANTED PLANT GROWTH” (Bayer Aktiengesellschaft, priority 2019, published 2023).

Columns and labels:
[1] = system: STEME; assay: Post-emergence herbicidal action against STEME; format: in vivo, Stellaria media; details: visual rating about 3 weeks after treatment
In short: (§1)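 Weeds grown in sandy loam under greenhouse conditions were sprayed at the one-leaf stage, 2-3 weeks after sowing. Compounds were applied as WP or EC formulations in water with 0.5% additive at 600 L/ha, at 1280 or 320 g/ha. Activity was rated visually about 3 weeks later against untreated controls (0-100%).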

[2] = system: AMARE; assay: Pre-emergence herbicidal action against AMARE; format: in vivo, Amaranthus retroflexus; details: scored visually after about 3 weeks vs untreated controls; for Pre-emergence action at 320 g/ha against AMARE in %: 100% = plants have died, 0% = like control plants; for Pre-emergence action against AMARE in %: 1280 g/ha
In short: (§2)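 Greenhouse pot test on sown, soil-covered weed seeds; spray of WP or EC formulation at 1280 or 320 g/ha onto covering soil. Effect rated visually after about 3 weeks (0% = like control, 100% = dead).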

[3] = system: PHBPU; assay: Post-emergence herbicidal action against PHBPU; format: in vivo, Pharbitis purpurea; details: 320 g/ha, visual rating about 3 weeks after treatment
In short: as §1

[4] = system: harmful plants; assay: Post-emergence herbicidal action, summary of Tables 5.1-5.16; format: in vivo; details: result in words
Description: Seeds of mono- and dicotyledonous weed plants are placed in plastic pots in sandy loam soil (twin sowing with one species each of mono- or dicotyledonous weed plants per pot), covered with soil and cultivated in a greenhouse under controlled growth conditions. 2 to 3 weeks after sowing, the test plants are treated at the one-leaf stage. The compounds of the invention, formulated in the form of wettable powders (WP) or as emulsion concentrates (EC), are applied to the green parts of the plants as aqueous suspension or emulsion with addition of 0.5% additive at a water application rate equivalent to 600 litres per hectare. After the test plants have been kept in the greenhouse under optimum growth conditions for about 3 weeks, the activity of the preparations is rated visually in comparison to untreated controls. For example, 100% activity=the plants have died, 0% activity=like control plants. Tables 5.1-5.16 below show the effects of selected compounds of the general formula (I) according to Tables 1 to 3 on various harmful plants at an application rate corresponding to 1280 or 320 g/ha, which have been obtained by the aforementioned experimental method. As the results from Tables 5.1-5.16 show, compounds of the invention have good herbicidal post-emergence efficacy against a broad spectrum of weed grasses and weeds. […] For example, compounds Nos. I-002, I-006, I-022, I-056 and I-072 applied by the post-emergence method have very good herbicidal action (80% to 100% herbicidal action) against harmful plants such as Alopecurus myosuroides, Amaranthus retroflexus, Matricaria inodora, Setaria viridis, Pharbitis purpurea and Stellaria media at an application rate of 1.28 kg of active substance or less per hectare.

[5] = system: POLCO; assay: Post-emergence herbicidal action against POLCO; format: in vivo, Polygonum convolvulus; details: 320 g/ha, visual rating about 3 weeks after treatment
Description: (§3) [table] Seeds of mono- and dicotyledonous weed plants are placed in plastic pots in sandy loam soil (twin sowing with one species each of mono- or dicotyledonous weed plants per pot), covered with soil and cultivated in a greenhouse under controlled growth conditions. 2 to 3 weeks after sowing, the test plants are treated at the one-leaf stage. The compounds of the invention, formulated in the form of wettable powders (WP) or as emulsion concentrates (EC), are applied to the green parts of the plants as aqueous suspension or emulsion with addition of 0.5% additive at a water application rate equivalent to 600 litres per hectare. After the test plants have been kept in the greenhouse under optimum growth conditions for about 3 weeks, the activity of the preparations is rated visually in comparison to untreated controls. For example, 100% activity=the plants have died, 0% activity=like control plants. Tables 5.1-5.16 below show the effects of selected compounds of the general formula (I) according to Tables 1 to 3 on various harmful plants at an application rate corresponding to 1280 or 320 g/ha, which have been obtained by the aforementioned experimental method.

[6] = system: VERPE; assay: Pre-emergence herbicidal action against VERPE; format: in vivo, Veronica persica; details: 320 g/ha, scored visually after about 3 weeks vs untreated controls
In short: as §2

[7] = system: AMARE; assay: Post-emergence herbicidal action against AMARE; format: in vivo, Amaranthus retroflexus; details: visual rating about 3 weeks after treatment
In short: as §1

[8] = system: VIOTR; assay: Post-emergence herbicidal action against VIOTR; format: in vivo, Viola tricolor; details: 320 g/ha, visual rating about 3 weeks after treatment
In short: as §1

[9] = system: ALOMY; assay: Post-emergence herbicidal action against ALOMY; format: in vivo, Alopecurus myosuroides; details: 1280 g/ha, post-emergence at one-leaf stage, rated visually after about 3 weeks vs untreated controls
Description: as §3

[10] = system: MATIN; assay: Pre-emergence herbicidal action against MATIN; format: in vivo, Matricaria inodora; details: 1280 g/ha, scored visually after about 3 weeks vs untreated controls
Text: (§4) Seeds of mono- and dicotyledonous weed plants are placed in plastic pots in sandy loam soil (doubly sown with one species each of mono- or dicotyledonous weed plants per pot) and covered with soil. The compounds of the invention, formulated in the form of wettable powders (WP) or as emulsion concentrates (EC), are then applied onto the surface of the covering soil as aqueous suspension or emulsion with addition of 0.5% additive at a water application rate equivalent to 600 litres per hectare. After the treatment, the pots are placed in a greenhouse and kept under good growth conditions for the trial plants. After about 3 weeks, the effect of the preparations is scored visually in comparison with untreated controls as percentages. For example, 100% activity=the plants have died, 0% activity=like control plants. [table] Tables 4.1-4.15 below show the effects of selected compounds of the general formula (I) according to Tables 1 to 3 on various harmful plants at an application rate corresponding to 1280 or 320 g/ha, which have been obtained by the aforementioned experimental method.

[11] = system: VERPE; assay: Post-emergence herbicidal action against VERPE; format: in vivo, Veronica persica; details: 320 g/ha, visual rating about 3 weeks after treatment
In short: as §1

[12] = system: MATIN; assay: Post-emergence herbicidal action against MATIN; format: in vivo, Matricaria inodora; details: visual rating about 3 weeks after treatment
In short: as §1

[13] = system: VIOTR; assay: Pre-emergence herbicidal action against VIOTR; format: in vivo, Viola tricolor; details: 1280 g/ha, scored visually after about 3 weeks vs untreated controls
Text: as §4

[14] = system: HORMU; assay: Post-emergence herbicidal action against HORMU; format: in vivo, Hordeum murinum; details: 320 g/ha, visual rating about 3 weeks after treatment
Description: as §3

[15] = system: SETVI; assay: Pre-emergence herbicidal action against SETVI; format: in vivo, Setaria viridis; details: 1280 g/ha, scored visually after about 3 weeks vs untreated controls
In short: as §2

[16] = system: ECHCG; assay: Post-emergence herbicidal action against ECHCG; format: in vivo, Echinochloa crus-galli; details: 1280 g/ha, post-emergence at one-leaf stage, rated visually after about 3 weeks vs untreated controls
In short: as §1

[17] = system: ECHCG; assay: Pre-emergence herbicidal action against ECHCG; format: in vivo, Echinochloa crus-galli; details: scored visually after about 3 weeks vs untreated controls, 100% = plants have died, 0% = like control plants
In short: as §2

[18] = system: POLCO; assay: Pre-emergence herbicidal action against POLCO; format: in vivo, Polygonum convolvulus; details: 320 g/ha, scored visually after about 3 weeks vs untreated controls
Text: as §4

[19] = system: STEME; assay: Pre-emergence herbicidal action against STEME; format: in vivo, Stellaria media; details: scored visually after about 3 weeks vs untreated controls
In short: as §2

[20] = system: SETVI; assay: Post-emergence herbicidal action against SETVI; format: in vivo, Setaria viridis; details: 1280 g/ha, post-emergence at one-leaf stage, rated visually after about 3 weeks vs untreated controls
In short: as §1

Structure (SMILES)	Post-emergence action against STEME in % ([1]; 320 g/ha)	Pre-emergence action at 320 g/ha against AMARE in % [2]	Post-emergence action against PHBPU in % [3]	herbicidal efficacy against harmful plants when applied post-emergence [4]	Post-emergence action against POLCO in % [5]	Pre-emergence action against VERPE in % [6]	Post-emergence action against AMARE in % ([7]; 320 g/ha)	Post-emergence action against STEME in % ([1]; 1280 g/ha)	Pre-emergence action against AMARE in % [2]	Post-emergence action against VIOTR in % [8]	Post-emergence action against VERPE in % [11]	Post-emergence action against MATIN in % ([12]; 1280 g/ha)	Post-emergence action against AMARE in % ([7]; 1280 g/ha)	Post-emergence action against HORMU in % [14]	Pre-emergence action against SETVI in % [15]	Post-emergence action against ECHCG in % [16]	Pre-emergence action at 1280 g/ha against ECHCG in % [17]	Pre-emergence action against POLCO in % [18]	Pre-emergence action against STEME in % ([19]; 320 g/ha)	Pre-emergence action against STEME in % ([19]; 1280 g/ha)	further results
COC(=O)COc1nn(-c2ccccc2)c(-c2ccc(F)cc2)c1C#N [I-014]	80%	100%	80%	very good herbicidal efficacy	80%	100%	80%														
COC(=O)COc1nn(-c2cccc(Cl)c2)c(-c2cccc(F)c2)c1C#N [I-046]	80%	90%	80%					80%	90%	80%	80%	80%	80%								Post-emergence action against ALOMY in % [9]: 80%; Pre-emergence action against MATIN in % [10]: 90%; Pre-emergence action against VIOTR in % [13]: 90%
COC(=O)COc1nn(-c2ccccc2F)c(-c2ccc(F)c(F)c2)c1Br [I-055]	80%	100%	80%		80%	90%	90%	100%	100%	100%	80%	100%	90%	80%	100%	100%	100%	90%	100%	100%	
CCOC(=O)COc1nn(-c2ccccc2F)c(-c2ccccc2)c1[N+](=O)[O-] [I-075]			90%		80%					100%	80%			80%				80%	80%		Post-emergence action against MATIN in % ([12]; 320 g/ha): 80%
O=C(O)COc1nn(-c2c(F)cccc2F)c(-c2ccc(F)c(F)c2)c1Br [I-137]	90%	90%	90%		90%	90%	80%	100%	100%	80%	90%	90%	90%	80%	100%	100%	100%	100%	90%	100%	Post-emergence action against SETVI in % [20]: 90%; Post-emergence action against MATIN in % ([12]; 320 g/ha): 80%
COC(=O)[C@H](C)Oc1nn(-c2ccccc2)c(-c2ccc(F)cc2)c1C#N [I-141]	90%	90%					90%	90%	100%	90%		90%	90%	80%	100%	100%	100%		80%	90%	Post-emergence action against MATIN in % ([12]; 320 g/ha): 80%
C1COCCN1.O=C(O)COc1nn(-c2cccc(F)c2)c(-c2ccccc2)c1I [II-04]				very good herbicidal efficacy				100%	100%								100%			100%	
COC(=O)CNC(=O)C(C)Oc1nn(-c2ccccc2)c(-c2ccc(F)cc2)c1Cl (stereo not drawn) [III-058]				very good herbicidal efficacy				100%	100%			100%	90%		90%		90%			100%	Post-emergence action against SETVI in % [20]: 100%
